The source of these data is PubChem BioAssay (NCI).

Test systems include TK-10 renal; SF-268 CNS; SK-MEL-5 melanoma; SF-295 CNS; HL-60(TB) leukemia; NCI/ADR-RES ovarian; SF-539 CNS; OVCAR-8 ovarian; NCI-H23 lung; MOLT-4 leukemia; SR leukemia; U251 CNS; PC-3 prostate; SK-MEL-2 melanoma; RPMI-8226 leukemia; CAKI-1 renal; OVCAR-3 ovarian; NCI-H522 lung; UACC-257 melanoma.
Holding throughout (assay): DTP human tumour cell line panel, 48 h

SMILES strings stand for the structures.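 Five compound concentrations were applied to cells in 96-well plates for 48 hours; endpoints were derived by simple linear interpolation of the resulting dose-response curve. The concentration for full growth arrest is given as TGI.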

On to `CO/C(=N\N=C\c1ccc(OC)cc1OC)c1ccncc1`, for which the TGI with TK-10 renal, in the assay on SF-268 CNS, with SK-MEL-5 melanoma, in the assay on SF-295 CNS, in the assay with HL-60(TB) leukemia and with NCI/ADR-RES ovarian was > 10 µM throughout. Moreover, the TGI in the assay with SF-539 CNS, with OVCAR-8 ovarian, in the assay with NCI-H23 lung, with MOLT-4 leukemia, with SR leukemia and in the assay with U251 CNS was > 10 µM throughout. Also, the TGI in the assay on PC-3 prostate, in the assay on SK-MEL-2 melanoma and in the assay with RPMI-8226 leukemia was > 10 µM throughout.
Take `COc1ccc(-c2onc(-c3c(C)cc(C)cc3C)c2C2=NCCCN2)cc1`: the TGI in the assay on CAKI-1 renal was 44.8 µM; in the assay with OVCAR-3 ovarian, > 100 µM; in the assay with SF-268 CNS it was > 100 µM; in the assay on SK-MEL-5 melanoma it was 60.9 µM; with SF-295 CNS it was 56.6 µM; in the assay with HL-60(TB) leukemia it was 38.6 µM. The TGI in the assay with SF-539 CNS is 53.7 µM; in the assay on OVCAR-8 ovarian, > 100 µM; in the assay on NCI-H23 lung it was > 100 µM; with MOLT-4 leukemia, > 100 µM; in the assay with SR leukemia, > 100 µM; in the assay on NCI-H522 lung, 35.5 µM. Moreover, the TGI with U251 CNS was 57.9 µM; in the assay with SK-MEL-2 melanoma it was 97.7 µM; with RPMI-8226 leukemia it was 86.5 µM; in the assay with UACC-257 melanoma, 70.1 µM.
For `C=C(C)[C@@H]1CC[C@@H](C)[C@](O)([C@@H]2C[C@@H]([C@H](COC(=O)c3ccccc3)OC(=O)c3ccccc3)OC2=O)C1`, the TGI in the assay on CAKI-1 renal, in the assay with TK-10 renal, in the assay with OVCAR-3 ovarian, in the assay with SF-268 CNS, in the assay with SK-MEL-5 melanoma and in the assay with SF-295 CNS was > 100 µM in each case. Also, the concentration for total growth inhibition (TGI) in the assay with NCI/ADR-RES ovarian, with SF-539 CNS, in the assay on OVCAR-8 ovarian, with NCI-H23 lung, with MOLT-4 leukemia and with SR leukemia was > 100 µM throughout. Besides, the concentration for total growth inhibition (TGI) in the assay on NCI-H522 lung, with U251 CNS, in the assay on PC-3 prostate, in the assay with SK-MEL-2 melanoma, in the assay with RPMI-8226 leukemia and in the assay with UACC-257 melanoma was > 100 µM each time.
With `COC(C/C(=C/CO[Si](C(C)C)(C(C)C)C(C)C)C(=O)Nc1ccccc1I)OC`, the TGI with CAKI-1 renal was > 100 µM; with TK-10 renal it was > 100 µM; in the assay with OVCAR-3 ovarian it was 51.8 µM; with SF-268 CNS it was > 100 µM; in the assay on SK-MEL-5 melanoma, > 100 µM; with SF-295 CNS, 28.2 µM. In addition, the concentration for total growth inhibition (TGI) with NCI/ADR-RES ovarian is > 100 µM; with SF-539 CNS, 48.4 µM; in the assay with OVCAR-8 ovarian, > 100 µM; in the assay with NCI-H23 lung, > 100 µM; in the assay on MOLT-4 leukemia, > 100 µM; with SR leukemia it was > 100 µM. Moreover, the total growth inhibition concentration (TGI) with NCI-H522 lung was 6.05 µM; in the assay on U251 CNS, > 100 µM; in the assay with PC-3 prostate it was 62.2 µM; in the assay with SK-MEL-2 melanoma it was 31.1 µM; in the assay with RPMI-8226 leukemia, 43.4 µM; in the assay on UACC-257 melanoma it was > 100 µM.
Take `Cn1cnc2c(OCC3CCCCC3)nc(N)nc21`: the TGI with CAKI-1 renal, in the assay on TK-10 renal, in the assay with OVCAR-3 ovarian, in the assay on SF-268 CNS, in the assay with SK-MEL-5 melanoma and in the assay with SF-295 CNS was > 100 µM throughout. Also, the concentration for total growth inhibition (TGI) in the assay on HL-60(TB) leukemia, with NCI/ADR-RES ovarian, in the assay with SF-539 CNS, in the assay on OVCAR-8 ovarian, in the assay with NCI-H23 lung and with MOLT-4 leukemia was > 100 µM throughout. Also, the TGI in the assay on NCI-H522 lung, in the assay on U251 CNS, in the assay on PC-3 prostate, in the assay on SK-MEL-2 melanoma, with RPMI-8226 leukemia and in the assay with UACC-257 melanoma was > 100 µM each time.
As to `Cc1[nH]n(-c2nc3c(c(=O)[nH]2)CCC3)c(=O)c1CCO`, the TGI with CAKI-1 renal, in the assay on TK-10 renal, with OVCAR-3 ovarian, in the assay on SF-268 CNS, in the assay on SK-MEL-5 melanoma and with SF-295 CNS was > 100 µM in each case. The concentration for total growth inhibition (TGI) with HL-60(TB) leukemia, in the assay with NCI/ADR-RES ovarian, in the assay with SF-539 CNS, with OVCAR-8 ovarian, in the assay on NCI-H23 lung and with MOLT-4 leukemia was > 100 µM throughout. In addition, the concentration for total growth inhibition (TGI) with NCI-H522 lung, in the assay on U251 CNS, in the assay with PC-3 prostate, with SK-MEL-2 melanoma, in the assay with RPMI-8226 leukemia and with UACC-257 melanoma was > 100 µM in each case.
For the compound `O=c1oc2cc(O)ccc2c(O)c1C(c1ccccn1)c1c(O)c2ccc(O)cc2oc1=O`, the TGI in the assay on CAKI-1 renal, with TK-10 renal, in the assay with OVCAR-3 ovarian, in the assay with SF-268 CNS, with SK-MEL-5 melanoma and with SF-295 CNS was > 100 µM throughout. Also, the TGI in the assay with NCI/ADR-RES ovarian, with SF-539 CNS, in the assay on OVCAR-8 ovarian, in the assay with NCI-H23 lung, with MOLT-4 leukemia and in the assay with SR leukemia was > 100 µM in each case. Further, the concentration for total growth inhibition (TGI) with NCI-H522 lung, in the assay on U251 CNS, with PC-3 prostate, with SK-MEL-2 melanoma, in the assay with RPMI-8226 leukemia and in the assay on UACC-257 melanoma was > 100 µM each time.
As to `O=c1cc(NCC2CCCCC2)[nH]c(=O)[nH]1`, the total growth inhibition concentration (TGI) in the assay on TK-10 renal, in the assay on OVCAR-3 ovarian, in the assay with SF-268 CNS, in the assay on SK-MEL-5 melanoma, in the assay on SF-295 CNS and in the assay on HL-60(TB) leukemia was > 100 µM throughout. The concentration for total growth inhibition (TGI) in the assay on NCI/ADR-RES ovarian, in the assay on SF-539 CNS, with OVCAR-8 ovarian, in the assay on NCI-H23 lung, in the assay with SR leukemia and with U251 CNS was > 100 µM in each case. The TGI with PC-3 prostate, with RPMI-8226 leukemia and with UACC-257 melanoma was > 100 µM throughout.

By TGI is commonly meant the concentration at which net growth stops. High values mean less potent growth arrest, low ones more potent growth arrest.
